Patent publication US7517654B2, “Peptide and a derivative thereof promoting cell adhesion and spreading” (Seoul National University Industry Foundation, priority 2004, dated 2009)

Columns and labels:
Format in all cases: cell-based, human
[1] = tested on: HOK-16B cells; assay: Cell adhesion assay on coated plates (crystal violet absorbance at 570 nm / cell counting); conditions: HOK-16B cells, 10 μg/well truncated or Ala-substituted peptide coating, 1 h
Experimental: The cell adhesion assay was performed according to a method reported by Okazaki et al. (J. Biol. Chem., 277:37070, 2002). In detail, 24-well culture plates (Nunc, Roskilde, Denmark) were coated with various amounts of rLG proteins at 4° C. overnight. The peptides were also coated on plates by drying overnight. The substrate-coated on the plates were blocked by adding 1% heat-inactivated bovine serum albumin (BSA) in PBS for 1 h at 37° C. and washed twice with PBS. The cells in the Experimental Example 1, detached by 0.05% tyrpsin and 0.53 mM EDTA in PBS and resuspended in culture media, were added (1×10^5 cells/500 μl) to each plate and incubated for 1 h at 37° C. After incubation, unattached cells were removed by rinsing twice with PBS. The attached cells were fixed with 10% formalin in PBS for 15 min, rinsed twice with PBS, and stained with 0.5% crystal violet for 1 h. The plates were gently rinsed with DDW three times and lysed with 2% SDS for 5 min. Absorbance was measured at 570 nm in a Bio-Rad Model 550 microplate reader (BioRad).
The cell adhesion and spreading activities on peptide-coated plates were examined using HOK-16B cells by the same method as Experimental Example 2. 24-well plates were coated with 10, 20, 30, 40 and 50 μg/well peptides P1 to P5, respectively. HOK-16B cells were added to peptide-coated plates and cultured for 1 h in serum-free medium for 1 hr. After the unbound cells were washed off, adherent cells were fixed and stained with crystal violet, and then the stained cells were analyzed. Absorbance was measured at 570 nm in a microplate reader. BSA and the rLG3 were used as negative control and positive control, respectively.
It was observed that peptide P4 promotes strong cell adhesion and spreading activities and binds to integrin α3β1 in the Example 4. Therefore, to determine the biologically active core sequences in peptide P4, five synthetic peptides (P4 D-I to P4 D-V), which are C-terminal truncated peptides from the peptide P4, and six synthetic peptides (P4 D-N1 to P4 D-N6), which are N-terminal truncated peptides from the peptide P4 were prepared (FIG. 6A) and examined for HOK-16B cell adhesion and spreading activities on peptide-coated plates by the present inventors. 24-well plates were coated with 10 μg/well C-terminal truncated peptides or N-terminal truncated peptides, and HOK-16B cells were added to the plates, and then cultured in serum-free medium for 1 hr. After the unbound cells were washed off, the adherent cells were fixed to stain with crystal violet, and the stained cells were analyzed. Absorbance was measured at 570 nm in a microplate reader. Peptide P4 and BSA were used as the positive and negative controls, respectively.
24-well plates were coated with 10 μg/well peptides, and HOK-16B cells were added to the plates, and then cultured in serum-free medium for 1 hr. After the unbound cells were washed off, the adherent cells were fixed to stain with crystal violet, and the stained cells were analyzed. Peptide P4 and BSA were used as the positive and negative controls, respectively. The results were expressed as mean ±SD of the four independent experiments.

[2] = tested on: FAK; assay: FAK phosphorylation assay (immunoblot, p-FAK/t-FAK); conditions: for FAK phosphorylation level at Tyr-397: peptides 50 μg/60-mm dish
Experimental: The FAK phosphorylation assays were performed according to a method of Shang et al. (J. Biol. Chem., 276:33045, 2001). In detail, the HOK-16B cells were trypsinized, washed, and kept in suspension in serum-free KGM with 0.1% BSA for 1 h at 37° C. The 60-mm culture dishes were coated with laminin (5 μg/ml) or rLG3 protein (25 μg/ml) at 4° C. overnight. Peptides (50 μg/60-mm culture dish) were also coated on dishes by drying overnight. For the adherent FAK assay, 1×10^6 cells were plated onto uncoated, laminin-coated, rLG3 protein-coated, or various peptide-coated dishes and allowed to attach for 15, 30, or 60 min at 37° C. in an atmosphere of 5% CO2. At the end of the incubation, cells were washed with ice-cold PBS and lysed in RIPA buffer (50 mM Tris [pH 7.4], 150 mM NaCl, 1% Nonidet P-40, 0.5% Na-deoxycholate, 1 mM EDTA, 0.1% SDS, 2 mM Na3VO4, 1 mM glycerol phosphate, 1 mM PMSF, and protease inhibitor cocktail). Lysates were clarified by centrifugation at 12,000×g for 10 min at 4° C. to isolate cytosolic extracts.
The cytosolic extracts were denatured using SDS sample buffer [50 mM Tris-HCl (pH 6.8), 2% SDS, 10% glycerol, 0.1% bromophenol blue, 100 mM β-mercaptoethanol] and separated on an 8% SDS-polyacrylamide gel. Electrophoretic transfer of SDS-PAGE gel separated with protein to a nitrocellulose membrane was followed by immnoblotting with polyclonal anti-FAK antibodies to determine the total FAK level or immnoblotting with polyclonal anti-FAK [pY^397], [pY^407], [pY^576], [pY^577] or [pY^861] antibodies to determine the extent of tyrosine phosphorylation. The relative fold induction of FAK phosphorylation, defined as an increase in FAK phosphorylation of a sample relative to its corresponding background level (i.e., cells plated on plastic) was determined as follows: First, the densitomerty intensity of the phosphorylated FAK (p-FAK) and the total FAK (t-FAK) signals from the Western blots were measured with a LAS-1000plus (Fuji photo film, Japan). The ratio of p-FAK to t-FAK (p-FAK/t-FAK) for each sample was then calculated to correct for differences in protein loading. This ratio was normalized to the p-FAK/t-FAK ratio of the negative controls to obtain the relative fold induction of FAK phosphorylation.
HOK-16B cells isolated by trypsinization were suspended for 1 hr, and kept in suspension (Sus), or replated on 60-mm culture dishes coated with or without laminin (5 μg/ml). The cells were kept for 15, 30, or 60 min for being attached on plates, then cell lysates were analyzed by immunoblot analysis with anti-FAK p-Y397 antibody (Biosource, Camariollo, Calif.). […] This effect was observed within 15 min and peaked at 15 min after exposure to the laminin-coated plate (FIG. 8A).
Therefore, the extent of FAK phosphorylation at Tyr-397,-407,-576, -577, and -861 was investigated in HOK-16B cells cultured on plates coated with laminin (5 μg/ml), rLG3 (25 μg/ml), or peptides P1-P5 (50 μg/60-mm dish) for 15 min. The lysates were immnoblotted with polyclonal anti-FAK, p-Y397, p-Y407, p-Y576, p-Y577 or p-Y861 antibodies (Biosoucce, Camariollo, Calif.), and the total FAK level was detected using anti-FAK antibodies (Upstate Biotechnology, Lake Placid, N.Y. The ratio of p-FAK to t-FAK (p-FAK/t-FAK) for each sample was then calculated to correct for differences in protein loading. This ratio was normalized to the p-FAK/t-FAK ratio of the negative controls (cells on plates) to obtain the relative fold induction of FAK phosphorylation. As a result, the extent of FAK phosphorylation at Tyr-397 cultured on the laminin-coated or rLG3 protein-coated plates increased 16.2- and 8.2-fold compared with the untreated control (FIG. 8B).

[3] = tested on: HOK-16B cells; assay: Cell spreading activity assay on coated plates; conditions: HOK-16B cells, 10 μg/well truncated or Ala-substituted peptide coating, 1 h
Experimental: To identify spreading cells, attached cells were fixed with 10% formalin in PBS for 15 min, rinsed twice with PBS, and stained with 0.005% crystal violet for 1 h. The plates were then gently rinsed with DDW. To ensure a representative count, each plate was divided into quarters, two fields per quarter were photographed using an Olympus BX51 microscope at 100× magnification. Cells that had adopted a flattened, polygonal shape, with filopodia-and lamellipodia-like extensions were considered to be spreading cells. In contrast, cells that resisted being washed and remained tethered to the plate surface were considered to be non-spreading cells.
To examine the adhesion activity of peptide P4 in detail, the inventors examined whether the adherent cells were tethered to the substratum or spread over the substratum. The BSA and rLG3 were used as the negative control and positive control, respectively, the percentage of cells displaying a spreading morphology was quantified by dividing the number of spreading cells by the total number of bound cells.

[4] = HOK-16B cells on coated dishes, laminin 5 μg/ml

Substance	cell adhesion activity compared to the peptide P4 control [1]	FAK phosphorylation level at Tyr-397 [2, 4]	cell spreading activity compared to the peptide P4 control [3]	changes of the FAK phosphorylation levels at Tyr-407, -576 and -861 ([2]; HOK-16B cells on coated dishes, 15 min)	increase of FAK phosphorylation at Tyr-397 compared with the untreated control ([2]; HOK-16B cells, 15 min, laminin 5 μg/ml or rLG3 25 μg/ml coating, p-FAK/t-FAK normalized) [fold]	time of peak FAK phosphorylation at Tyr-397 after exposure to coated plate ([2]; laminin 5 μg/ml, 15, 30 or 60 min tested) [min]
P4-S2: peptide P4 in which Ala substituted for Arg (PPFLMLLKGSTA)	significantly inhibited	significantly decreased	significantly inhibited			
laminin [reference compound]		notably higher		not observed	16.2	15
P4-S3: peptide P4 in which Ala substituted for both Lys and Arg (PPFLMLLAGSTA)	significantly inhibited	significantly decreased	significantly inhibited			
